Test results taken from patent US11530206B2, “Phenylaminopyrimidine amide autophagy inhibitors and methods of use thereof” (Deciphera Pharmaceuticals, LLC, priority 2019, dated 2022).

Key:
ULK2 kinase = target: T1, ULK2 kinase (Homo sapiens, UniProt Q8IYT8); experiment: Biochemical assay for ULK2 (coupled pyruvate kinase/lactate dehydrogenase assay); conditions: 9.7 nM ULK2 (residues 1-306, GST and His tag), myelin basic protein, 1 mM ATP; read-out: ULK2.2
T1 construct: purchased Eurofins 14-772
Method: Example 132. Biochemical Assay for ULK2 (SEQ. ID NO: 3)
Activity of ULK2 kinase was determined spectroscopically using a coupled pyruvate kinase/lactate dehydrogenase assay that continuously monitors the ATP hydrolysis-dependent oxidation of NADH (e.g., Schindler et al. Science (2000) 289: 1938-1942). Assays were conducted in 384-well plates (100 uL final volume) using 9.7 nM ULK2 (Eurofins CAT #14-772), 0.25 mg/mL myelin basic protein, 1.5 units pyruvate kinase, 2.1 units lactate dehydrogenase, 1 mM phosphoenol pyruvate, 0.28 mM NADH and 1 mM ATP in assay buffer (100 mM Tris, pH 7.5, 15 mM MgCl2, 0.5 mM DTT, 0.1% octyl-glucoside, 0.002% (w/v) BSA, and 0.002% Triton X-100). Inhibition of ULK2 was measured by adding serial diluted test compound (final assay concentration of 1% DMSO). A decrease in absorption at 340 nm was monitored continuously for 6 hours at 30° C. on a multi-mode microplate reader (BioTek). The reaction rate was calculated using the 2-3 h time frame. The reaction rate at each concentration of compound was converted to percent inhibition using controls (i.e. reaction with no test compound and reaction with a known inhibitor) and IC50 values were calculated by fitting a four-parameter sigmoidal curve to the data using Prism (GraphPad software).

ULK kinase [1] = experiment: pATG13 levels of mutant KRas HCT-116 cells after treatment with ULK inhibitors in combination with trametinib (ELISA); assay type: cell-based, human; conditions: HCT-116 colon cancer cells, 250 nM trametinib, overnight, pS318-ATG13
Method: The following day, 10 μL of media containing trametinib or DMSO as a control was added to wells. […] A dose response of a test compound (0.6 μL per well) was added. DMSO (0.6 μL) was added to control wells. The plate was briefly shaken to mix wells and then incubated at 37° C. overnight. The next day, the media was aspirated and cells were washed with Dulbecco's Phosphate Buffered Saline (Gibco). Cells were lysed using MPER lysis buffer (Pierce, Rockford, Ill.) containing Halt Phosphatase and Protease Inhibitors (Pierce, Rockford, Ill.) and Phosphatase inhibitor cocktail 2 (Sigma, St. Louis, Mo.) at 4° C. for 10 minutes with shaking.
(§1) Plate wells were washed with ELISA wash buffer. Cell lysate was added to wells and incubated at room temperature for 2 hours. Plate wells were washed with ELISA wash buffer. […] Plate wells were washed with ELISA wash buffer. […] Plate wells were washed with ELISA wash buffer. […] The reaction was stopped with 2N Sulfuric Acid. The plate was analyzed at on a plate reader measuring absorbance at 450 nm and 540 nm (background). Signal was calculated by first subtracting the background absorbance at 540 nm from the absorbance at 450 nm for each well. Next, the background corrected absorbance at 450 nm from blank wells was subtracted from test wells. Data was compared to control wells to determine % ATG13 phosphorylation. GraphPad Prism was used to calculate IC50 values.

ULK kinase [2] = experiment: pATG13 levels of mutant KRas MiaPaCa-2 cells after treatment with ULK inhibitors in combination with trametinib (ELISA); assay type: cell-based, human; conditions: MiaPaCa-2 pancreatic cancer cells, 250 nM trametinib, overnight, pS318-ATG13
Procedure, shortened: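 MiaPaCa-2 cells in DMEM with 10% FBS and 2.5% horse serum were pretreated with trametinib or DMSO, then given a test-compound dose response overnight at 37° C. Lysates were assayed for phospho-ATG13 by ELISA (A450 minus A540 background, blank-corrected). % phosphorylation was calculated relative to controls and fitted to IC50.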

ULK kinase [3] = experiment: pATG13 levels of mutant KRas A549 cells after treatment with ULK inhibitors in combination with trametinib (ELISA); assay type: cell-based, human; conditions: A549 (KRAS mutant) lung cancer cells, 250 nM trametinib, overnight, pS318-ATG13
Procedure, shortened: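 Lysates with phosphatase/protease inhibitors assayed by pATG13 ELISA, A450 minus A540 background and blank-corrected. % ATG13 phosphorylation versus DMSO controls fitted to IC50.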

ULK1 kinase [4] = target: T2, ULK1 kinase (Homo sapiens, UniProt O75385); experiment: Biochemical assay for ULK1.2 (coupled pyruvate kinase/lactate dehydrogenase assay); conditions: 19 nM ULK1 (residues 1-314, His tag), myelin basic protein, 1 mM ATP
T2 construct: purchased Eurofins 14-959
T2 sequence (O75385 with tags, fused parts or gaps): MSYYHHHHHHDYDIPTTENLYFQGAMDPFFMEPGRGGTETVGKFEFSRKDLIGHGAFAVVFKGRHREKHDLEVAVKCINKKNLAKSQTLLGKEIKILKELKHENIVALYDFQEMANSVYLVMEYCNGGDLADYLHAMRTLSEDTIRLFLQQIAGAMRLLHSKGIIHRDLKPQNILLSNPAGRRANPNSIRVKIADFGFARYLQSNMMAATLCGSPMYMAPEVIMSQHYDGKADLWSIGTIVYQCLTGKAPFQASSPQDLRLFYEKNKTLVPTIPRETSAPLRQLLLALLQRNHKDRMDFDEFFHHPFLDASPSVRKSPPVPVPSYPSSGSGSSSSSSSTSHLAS
Method: Biochemical Assay for ULK1.2 (SEQ. ID NO: 1)
Inhibition of ULK1 was measured by adding serial diluted test compound (final assay concentration of 1% DMSO). A decrease in absorption at 340 nm was monitored continuously for 6 hours at 30° C. on a multi-mode microplate reader (BioTek). The reaction rate was calculated using the 2-3 h time frame. The reaction rate at each concentration of compound was converted to percent inhibition using controls (i.e. reaction with no test compound and reaction with a known inhibitor) and IC50 values were calculated by fitting a four-parameter sigmoidal curve to the data using Prism (GraphPad software).

LRRK2 kinase = target: T3, LRRK2 kinase (Homo sapiens, UniProt Q5S007); experiment: Biochemical assay for LRRK2 (coupled pyruvate kinase/lactate dehydrogenase assay); conditions: 26.4 nM LRRK2 (residues 970-2528), peptide substrate, 1 mM ATP
T3 construct: purchased Thermo Fisher
Procedure, shortened: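 Recombinant LRRK2 (26.4 nM) with 0.1 mM peptide substrate and 1 mM ATP in Tris pH 7.5/MgCl2 buffer; ADP production coupled via PK/LDH to NADH oxidation, A340 read continuously 6 h at 30 °C. Rates from 2–3 h window converted to % inhibition versus no-compound and reference-inhibitor controls; IC50 fitted.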

ULK1 kinase [5] = target: T4, ULK1 kinase (Homo sapiens, UniProt O75385, E37A/K38A); experiment: Biochemical assay for ULK1.3 (coupled pyruvate kinase/lactate dehydrogenase assay, peptide substrate); conditions: 0.1 nM ULK1 (residues 1-283), 1 mM ATP
T4 construct: purchased Beryllium
T4 sequence (O75385 1-283 E37A/K38A): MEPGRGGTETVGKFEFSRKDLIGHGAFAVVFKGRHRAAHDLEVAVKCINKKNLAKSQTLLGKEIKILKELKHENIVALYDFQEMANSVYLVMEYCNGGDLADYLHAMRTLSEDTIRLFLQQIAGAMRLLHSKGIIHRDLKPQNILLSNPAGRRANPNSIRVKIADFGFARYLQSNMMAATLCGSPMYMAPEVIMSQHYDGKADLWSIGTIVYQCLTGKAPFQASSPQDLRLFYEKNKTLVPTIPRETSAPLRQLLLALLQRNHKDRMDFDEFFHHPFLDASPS
Procedure, shortened: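 ULK1.3 activity was followed by continuous decrease in 340 nm absorbance over 6 h at 30 °C with 1% DMSO final. Rates were taken from the 2–3 h window and converted to percent inhibition against no-compound and known-inhibitor controls. IC50 values came from curve fitting.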

ULK kinase [6] = experiment: pATG13 levels of mutant BRAF A375 cells after treatment with ULK inhibitors in combination with trametinib (ELISA); assay type: cell-based, human; conditions: A375 malignant melanoma cells (mutant BRAF), 250 nM trametinib, overnight, pS318-ATG13
Method: A375 human malignant melanoma cancer cells (20000 cells/well) were added to a 96-well tissue-culture treated plate in 100 μL of pre-warmed DMEM medium supplemented with 10% characterized fetal bovine serum (Invitrogen, Carlsbad, Calif.), 100 units/mL penicillin G, and 100 μg/mL streptomycin and allowed to grow overnight at 37° C., 5% CO2, and 95% humidity. The following day, 100 μL of media containing trametinib or DMSO as a control was added to wells. […] A dose response of a test compound (0.5 μL per well) was added. DMSO (0.5 μL) was added to control wells. The plate was briefly shaken to mix wells and then incubated at 37° C. overnight. The next day, the media was aspirated and cells were washed with Dulbecco's Phosphate Buffered Saline (Gibco). Cells were lysed using MPER lysis buffer (Pierce, Rockford, Ill.) containing Halt Phosphatase and Protease Inhibitors (Pierce, Rockford, Ill.) and Phosphatase inhibitor cocktail 2 (Sigma, St. Louis, Mo.) at 4° C. for 10 minutes with shaking.
as §1

T1 sequence (Q8IYT8 with tags, fused parts or gaps): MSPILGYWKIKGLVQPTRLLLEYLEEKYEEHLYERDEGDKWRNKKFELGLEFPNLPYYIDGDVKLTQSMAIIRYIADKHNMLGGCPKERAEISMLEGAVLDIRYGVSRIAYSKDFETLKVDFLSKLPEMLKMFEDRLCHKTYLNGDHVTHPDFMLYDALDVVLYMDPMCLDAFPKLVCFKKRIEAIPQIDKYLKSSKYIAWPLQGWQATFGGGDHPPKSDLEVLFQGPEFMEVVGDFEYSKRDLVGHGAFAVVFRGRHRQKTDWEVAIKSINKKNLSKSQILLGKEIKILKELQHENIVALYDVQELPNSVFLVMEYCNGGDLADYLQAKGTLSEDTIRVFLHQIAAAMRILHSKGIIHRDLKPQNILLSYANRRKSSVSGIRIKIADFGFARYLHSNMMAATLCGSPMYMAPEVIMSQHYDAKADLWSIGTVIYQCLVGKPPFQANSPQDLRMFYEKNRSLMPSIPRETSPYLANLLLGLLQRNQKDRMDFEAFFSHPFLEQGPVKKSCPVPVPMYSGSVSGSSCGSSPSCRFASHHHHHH
T3 sequence (Q5S007 with tags, fused parts or gaps): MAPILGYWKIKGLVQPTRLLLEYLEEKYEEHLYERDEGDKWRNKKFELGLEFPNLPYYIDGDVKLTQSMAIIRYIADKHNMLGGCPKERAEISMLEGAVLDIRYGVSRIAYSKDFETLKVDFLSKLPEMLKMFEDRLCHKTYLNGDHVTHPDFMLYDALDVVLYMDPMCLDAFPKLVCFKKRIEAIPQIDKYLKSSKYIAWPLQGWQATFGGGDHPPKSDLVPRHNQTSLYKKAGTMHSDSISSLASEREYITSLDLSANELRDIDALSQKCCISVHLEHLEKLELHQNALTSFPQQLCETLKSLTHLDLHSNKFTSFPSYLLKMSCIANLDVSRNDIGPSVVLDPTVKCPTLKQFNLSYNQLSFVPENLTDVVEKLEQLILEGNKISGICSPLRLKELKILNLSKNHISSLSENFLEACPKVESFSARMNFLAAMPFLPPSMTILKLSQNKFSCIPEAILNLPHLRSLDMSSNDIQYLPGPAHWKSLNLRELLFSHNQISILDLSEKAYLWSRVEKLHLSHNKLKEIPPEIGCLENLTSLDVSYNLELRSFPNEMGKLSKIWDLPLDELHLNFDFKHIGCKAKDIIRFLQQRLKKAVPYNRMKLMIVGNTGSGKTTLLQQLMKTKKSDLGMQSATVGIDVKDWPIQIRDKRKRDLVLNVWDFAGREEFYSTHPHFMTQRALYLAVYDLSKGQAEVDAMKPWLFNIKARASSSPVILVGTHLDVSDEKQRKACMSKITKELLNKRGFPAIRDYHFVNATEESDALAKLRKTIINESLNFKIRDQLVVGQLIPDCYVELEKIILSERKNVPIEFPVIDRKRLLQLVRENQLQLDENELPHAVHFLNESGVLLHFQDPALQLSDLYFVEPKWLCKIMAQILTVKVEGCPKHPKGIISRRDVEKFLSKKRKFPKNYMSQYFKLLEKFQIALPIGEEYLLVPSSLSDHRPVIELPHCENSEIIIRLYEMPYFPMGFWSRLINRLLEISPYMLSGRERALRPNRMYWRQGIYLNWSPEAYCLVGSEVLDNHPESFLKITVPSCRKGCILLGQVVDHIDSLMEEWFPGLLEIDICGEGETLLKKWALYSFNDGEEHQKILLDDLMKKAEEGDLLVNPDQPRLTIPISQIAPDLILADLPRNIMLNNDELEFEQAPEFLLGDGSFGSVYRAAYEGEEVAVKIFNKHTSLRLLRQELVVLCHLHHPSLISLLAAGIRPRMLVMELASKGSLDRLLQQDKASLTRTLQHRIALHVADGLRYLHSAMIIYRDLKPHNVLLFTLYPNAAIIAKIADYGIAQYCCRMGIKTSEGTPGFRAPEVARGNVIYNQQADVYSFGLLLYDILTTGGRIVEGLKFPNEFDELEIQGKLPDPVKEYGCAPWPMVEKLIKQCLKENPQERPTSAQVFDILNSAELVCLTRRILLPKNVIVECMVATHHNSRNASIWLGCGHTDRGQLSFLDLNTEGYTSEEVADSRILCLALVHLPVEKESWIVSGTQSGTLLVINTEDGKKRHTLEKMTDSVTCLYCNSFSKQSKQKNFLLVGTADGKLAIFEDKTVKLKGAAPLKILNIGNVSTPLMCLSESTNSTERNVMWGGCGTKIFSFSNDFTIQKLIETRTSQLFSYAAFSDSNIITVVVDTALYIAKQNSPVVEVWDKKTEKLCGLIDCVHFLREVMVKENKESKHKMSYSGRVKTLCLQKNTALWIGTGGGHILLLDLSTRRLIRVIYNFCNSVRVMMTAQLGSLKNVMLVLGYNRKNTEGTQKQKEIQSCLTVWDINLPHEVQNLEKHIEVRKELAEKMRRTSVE

Compound | IC50 (ULK2 kinase) [µM] | IC50 (ULK kinase [1]) [µM] | IC50 (ULK kinase [2]) [µM] | IC50 (ULK kinase [3]) [µM] | IC50 (ULK1 kinase [4]) [µM] | IC50 (LRRK2 kinase) [µM] | IC50 (ULK1 kinase [5]) [µM] | IC50 (ULK kinase [6]) [µM]
CCc1cc(N2CC3CCC(C2)N3C)ccc1Nc1ncc(C(F)(F)F)c(NCCCN2CCCOC2=O)n1 [Example 69] |  | 0.01 to 0.1 | 0.01 to 0.1 | 0.01 to 0.1 |  | 0.3 to 0.6 | 0.001 to 0.025 | 
CCc1cc(N2CCN(C)CC2)ccc1Nc1ncc(C(F)(F)F)c(NCCCN2CCCCC2=O)n1 [Example 11] | 0.001 to 0.025 | 0.01 to 0.1 | 0.01 to 0.1 | 0.1 to 0.3 | 0.001 to 0.025 |  |  | 0.01 to 0.1
CCc1cc(N2CCN(C)CC2)ccc1Nc1ncc(Br)c(NCCCN2CCCCC2=O)n1 [Example 23, 1-(3-((5-bromo-2-((2-ethyl-4-(4-methylpiperazin-1-yl)phenyl)amino)pyrimidin-4-yl)amino)propyl)piperidin-2-one] | 0.1 to 0.5 | 0.01 to 0.1 | 0.01 to 0.1 | 0.01 to 0.1 | 0.025 to 0.1 |  |  | 0.01 to 0.1
CN1CCN(c2ccc(Nc3ncc(C(F)(F)F)c(NCCCN4CCOCC4=O)n3)c(C3CC3)c2)CC1 [Example 47] |  | 0.1 to 0.3 | 0.3 to 0.6 | 0.1 to 0.3 |  | 0.1 to 0.3 | 0.025 to 0.1 | 0.3 to 0.6
Cc1cc(N2CCN(C)CC2)ccc1Nc1ncc(C(F)(F)F)c(NCCCN2CCCCC2=O)n1 [Example 20] | 0.025 to 0.1 | 0.1 to 0.3 | 0.1 to 0.3 | 0.3 to 0.6 | 0.001 to 0.025 |  |  | 
Cc1cc(N2CCNCC2)ccc1Nc1ncc(C(F)(F)F)c(NCCCN2CCCOC2=O)n1 [Example 37] |  |  | 0.01 to 0.1 | 0.1 to 0.3 |  | 0.1 to 0.3 | 0.001 to 0.025 | 0.3 to 0.6

Other lines, results leading:

IC50 (ULK2 kinase) [µM] | IC50 (ULK kinase [1]) [µM] | IC50 (ULK kinase [2]) [µM] | IC50 (ULK kinase [3]) [µM] | IC50 (ULK1 kinase [4]) [µM] | IC50 (LRRK2 kinase) [µM] | IC50 (ULK1 kinase [5]) [µM] | IC50 (ULK kinase [6]) [µM] | Compound
0.025 to 0.1 | 0.01 to 0.1 | 0.01 to 0.1 | 0.01 to 0.1 | 0.001 to 0.025 |  |  |  | CCc1cc(N2CCN(C)CC2)ccc1Nc1ncc(C(F)(F)F)c(NCCCN2CCCOCC2=O)n1 [Example 54]
 | 0.01 to 0.1 | 0.01 to 0.1 | 0.01 to 0.1 |  | 0.001 to 0.1 | 0.001 to 0.025 |  | CCc1cc(N2CCN3CCC[C@@H]3C2)ccc1Nc1ncc(C(F)(F)F)c(NCCCN2CCOCCC2=O)n1 [Example 105]
 | 0.1 to 0.3 | 0.01 to 0.1 | 0.01 to 0.1 |  |  | 0.001 to 0.025 | 0.1 to 0.3 | O=C1CCOCCN1CCCNc1nc(Nc2ccc(N3CCNCC3)cc2C2CC2)ncc1C(F)(F)F [Example 85]
 | 0.01 to 0.1 | 0.1 to 0.3 | 0.1 to 0.3 | 0.001 to 0.025 |  |  | 0.3 to 0.6 | CCN1CCN(c2ccc(Nc3ncc(C(F)(F)F)c(NCCCN4CCCOCC4=O)n3)c(C(C)C)c2)CC1 [Example 60]
0.1 to 0.5 | 0.01 to 0.1 | 0.1 to 0.3 | 0.1 to 0.3 | 0.001 to 0.025 |  |  | 0.01 to 0.1 | CCN1CCN(c2ccc(Nc3ncc(C(F)(F)F)c(NCCCN4CCOCCC4=O)n3)c(C(C)C)c2)CC1 [Example 73]
 | 0.01 to 0.1 | 0.01 to 0.1 | 0.01 to 0.1 |  | 0.1 to 0.3 | 0.001 to 0.025 |  | CCc1cc(N2CCN3CCC[C@@H]3C2)ccc1Nc1ncc(C(F)(F)F)c(NCCCN2CCCOC2=O)n1 [Example 106]
 | 0.1 to 0.3 | 0.01 to 0.1 | 0.1 to 0.3 |  |  | 0.001 to 0.025 | 0.1 to 0.3 | Cc1cc(N2CCNCC2)ccc1Nc1ncc(C(F)(F)F)c(NCCCN2CCOCCC2=O)n1 [Example 75]
> 0.5 | 0.01 to 0.1 | 0.01 to 0.1 | 0.1 to 0.3 | 0.1 to 0.5 | 0.1 to 0.3 |  |  | CCc1cc(N2CCN(C)CC2)ccc1Nc1ncc(Cl)c(NCCCN2CCCOCC2=O)n1 [Example 58]
